Test results from article PMC5329948, “Caspase vinyl sulfone small molecule inhibitors prevent axonal degeneration in human neurons and reverse cognitive impairment in Caspase-6-overexpressing mice” (Molecular Neurodegeneration, 2017).
pIC50: −log10 of the molar value.

What was measured:
Format in all cases: biochemical
recombinant Caspase-5 = biological target: T1, recombinant Caspase-5 (Homo sapiens, UniProt P51878); assay: Caspase Inhibitor Drug Screening Kit (BioVision), WEHD-AFC substrate; details: not active site titrated
T1 construct: purchased BioVision
Experimental: (§1) The half-maximal inhibitory concentrations (IC50) for NWL inhibitors (Patent publication # WO/2009/140765, WO/2010/133000, and WO/2012/140500) was determined by incubating 0 to 20 μM NWL-117 and NWL-154 with 20 nM of active site-titrated Casp6 in SB at room temperature for 5 minutes. Then, 10 μM Ac-VEID-AFC was added and fluorescence measured for 20 min at 37 °C as described above. New World Laboratories performed the IC50 determination for NWL inhibitors dissolved in dimethyl sulfoxide (DMSO) against recombinant Casp1-10 using the Caspase Inhibitor Drug Screening Kits (BioVision, San Francisco, CA) following the manufacturer’s instructions and the preferred substrates for the caspases (Caspase-1: WAD-AFC, Caspase-2: VDVAD-AFC, Caspase-3: DEVD-AFC, Caspase-4: LEVD-AFC, Caspase-5: WEHD-AFC, Casp6:VEID-AFC, Caspase-7: DEVD-AFC, Caspase-8: IETD-AFC, Caspase-9: LEHD-AFC, Caspase-10: AEVD-AFC). In transfected HCT116 cells, 0 to 100 μM NWL inhibitors were added in the culture media and left on the cells for 2 h. Cells were washed once with 1 mL ice-cold PBS, incubated on ice for 5 min with 200 μL cell lysis buffer (CLB) (50 mM HEPES, 0.1% CHAPS, 0.1 mM EDTA), and gently scraped off. Protein concentrations were determined by Bradford assay (BioRad, Mississauga, ON, CA) by measuring the absorbance at 595 nm using the BioTek Synergy H4 plate reader. […]

recombinant Caspase-4 = biological target: T2, recombinant Caspase-4 (Homo sapiens, UniProt P49662); assay: Caspase Inhibitor Drug Screening Kit (BioVision), LEVD-AFC substrate; details: not active site titrated
T2 construct: purchased BioVision
Experimental: as §1

recombinant Caspase-9 = biological target: T3, recombinant Caspase-9 (Homo sapiens, UniProt P55211); assay: Caspase Inhibitor Drug Screening Kit (BioVision), LEHD-AFC substrate; details: not active site titrated
T3 construct: purchased BioVision
Experimental: as §1

recombinant Caspase-10 = biological target: T4, recombinant Caspase-10 (Homo sapiens, UniProt Q92851); assay: Caspase Inhibitor Drug Screening Kit (BioVision), AEVD-AFC substrate; details: not active site titrated
T4 construct: purchased BioVision
Experimental: as §1

[1] = biological target: T5, recombinant active site-titrated Casp6 (Homo sapiens, UniProt P55212); assay: IC50 on in-house recombinant active site-titrated Casp6 (Ac-VEID-AFC fluorogenic assay); details: 20 nM Casp6, 5 min preincubation at room temperature, 10 μM Ac-VEID-AFC; read-out: IC50 against recombinant active site-titrated Casp6
T5 construct: human Casp6 large subunit (amino acids 24-179, flanked by start (ATG) and stop (TAA) codons); small subunit (amino acids 194-293, preceded by a start codon); initiator Met (added start codon) (N); His; made in house; host or cells: E. coli BL21(DE3)pLysS
Experimental: Recombinant Casp6 Expression and purification: Casp6 was expressed from the pET23b(+)-Casp6-His plasmid in E. coli BL21(DE3)pLysS strain (Promega, Fitchburg, WI, USA) at 37 °C in 2xYT medium (16 g/l tryptone, 10 g/l yeast extract, 5 g/l NaCl) supplemented with 0.1 mg/ml ampicillin and 0.034 mg/ml chloramphenicol under vigorous shaking according to [46]. Casp6 expression was induced with 50 μM isopropyl β-D-1-thiogalactopyranoside (IPTG) when cell cultures reached OD595 nm of 0.6 and cells cultured at 22 °C for 16 h under vigorous shaking. […] The lysate was clarified by centrifugation (30,000 x g for 30 min at 4 °C) and loaded on Ni Sepharose Fast Flow 6 medium (GE Healthcare Life Sciences, Baie D’Urfe, QC, CA) pre-equilibrated with buffer A, washed with buffer B (50 mM Tris pH 8.5, 500 mM NaCl, 5% glycerol, 20 mM imidazole), and bound proteins eluted with a 50-300 mM linear imidazole gradient in buffer A. Fractions were assessed for recombinant Casp6 purity by SDS-PAGE and Coomassie blue staining. […] Protein concentration was measured using Quick Start Bradford 1x Dye Reagent (Bio-Rad Laboratories, Hercules, CA, USA). Active site titration assay: The concentration of Casp6 active sites was determined by active site titration assay using Z-VAD-fmk (N-benzyloxycarbonyl-Val-Ala-Asp-(O-methyl)-fluoromethylketone, MP Biomedicals, Santa Ana, CA, USA) inhibitor [46]. […]

T1 sequence (P51878 137-434): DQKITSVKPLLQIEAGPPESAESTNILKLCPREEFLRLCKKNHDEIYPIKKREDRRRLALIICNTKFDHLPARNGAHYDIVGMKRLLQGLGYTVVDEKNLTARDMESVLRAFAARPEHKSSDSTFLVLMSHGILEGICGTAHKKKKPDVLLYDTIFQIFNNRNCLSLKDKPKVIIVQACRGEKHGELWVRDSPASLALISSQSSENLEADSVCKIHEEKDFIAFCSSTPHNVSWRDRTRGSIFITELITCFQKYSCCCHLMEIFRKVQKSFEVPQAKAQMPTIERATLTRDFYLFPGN
T2 sequence (P49662 81-377): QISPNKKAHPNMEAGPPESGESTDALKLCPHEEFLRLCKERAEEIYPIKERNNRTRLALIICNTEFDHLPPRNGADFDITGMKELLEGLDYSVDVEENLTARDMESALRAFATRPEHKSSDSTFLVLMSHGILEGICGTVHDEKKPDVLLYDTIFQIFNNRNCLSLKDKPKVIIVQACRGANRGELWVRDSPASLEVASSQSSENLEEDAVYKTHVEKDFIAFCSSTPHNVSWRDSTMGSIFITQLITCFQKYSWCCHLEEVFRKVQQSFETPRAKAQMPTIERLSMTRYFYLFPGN
T3 sequence (P55211 whole entry): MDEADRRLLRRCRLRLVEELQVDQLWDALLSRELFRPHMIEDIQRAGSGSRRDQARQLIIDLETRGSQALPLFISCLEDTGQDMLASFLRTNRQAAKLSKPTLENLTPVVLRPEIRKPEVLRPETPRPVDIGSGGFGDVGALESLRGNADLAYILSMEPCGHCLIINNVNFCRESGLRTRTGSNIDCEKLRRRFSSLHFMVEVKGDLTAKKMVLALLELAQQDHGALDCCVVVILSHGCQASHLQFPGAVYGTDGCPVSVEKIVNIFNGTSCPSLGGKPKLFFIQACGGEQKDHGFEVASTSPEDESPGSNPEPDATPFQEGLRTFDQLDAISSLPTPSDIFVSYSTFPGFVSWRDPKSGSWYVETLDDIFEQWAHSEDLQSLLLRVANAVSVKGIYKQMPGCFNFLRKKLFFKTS
T5 sequence (P55212 24-179): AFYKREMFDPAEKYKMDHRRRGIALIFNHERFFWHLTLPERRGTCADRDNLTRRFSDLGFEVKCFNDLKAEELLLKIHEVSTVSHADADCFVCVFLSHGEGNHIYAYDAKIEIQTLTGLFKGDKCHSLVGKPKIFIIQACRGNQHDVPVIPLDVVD
T5 sequence (P55212 194-293): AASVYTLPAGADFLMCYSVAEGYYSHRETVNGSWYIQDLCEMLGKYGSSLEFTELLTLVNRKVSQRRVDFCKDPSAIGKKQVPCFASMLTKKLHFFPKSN
T4 sequence (Q92851 220-521): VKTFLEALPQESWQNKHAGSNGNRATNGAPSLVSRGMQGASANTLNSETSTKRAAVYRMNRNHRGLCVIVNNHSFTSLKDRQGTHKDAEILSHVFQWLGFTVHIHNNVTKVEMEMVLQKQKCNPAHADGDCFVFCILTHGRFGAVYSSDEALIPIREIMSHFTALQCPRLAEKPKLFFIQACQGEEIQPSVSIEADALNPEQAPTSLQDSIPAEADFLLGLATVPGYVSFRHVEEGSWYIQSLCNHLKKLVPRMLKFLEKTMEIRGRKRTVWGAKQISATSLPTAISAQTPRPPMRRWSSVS

SMILES | pIC50 (recombinant Caspase-5) | pIC50 (recombinant Caspase-4) | pIC50 (recombinant Caspase-9) | pIC50 (recombinant Caspase-10) | pIC50 [1]
CCC(C)[C@H](NC(=O)[C@H](CCC(=O)O)NC(=O)[C@@H](NC(=O)OCc1ccccc1)C(C)C)C(=O)N[C@H](/C=C/S(C)(=O)=O)CC(=O)O (stereo partly shown) [NWL-117] | 4.71 | 6.42 | 6.10 | 6.89 | 6.72
CCC(C)[C@H](NC(=O)[C@H](CCC(=O)O)NC(=O)[C@@H](NC(=O)OCc1ccccc1)C(C)C)C(=O)N[C@H](/C=C(\Cl)S(C)(=O)=O)CC(=O)O (stereo partly shown) [NWL-154] | 5.38 | 5.74 | 5.19 | 6.72 | 7.00
